Laboratory results: patent publication US5373009A, “Dibenzofuranyl esters of N-heterocyclic carboxylic acids” (priority 1994, dated 1994)

Columns and labels:
CEH = details: prior art statement; cited from earlier work
[1] = tested on: absorption of 14C-cholesterol; assay: In vivo cholesterol absorption in normal rats (serum radioactivity after oral [4-14C] cholesterol); details: serum radioactivity at 6 hr, vs control
Protocol: The in vivo cholesterol absorption studies were conducted in normal rats by oral administration of the compound being tested in propylene glycol and olive oil followed by oral administration of [4-^14 C] cholesterol in propylene glycol and olive oil, otherwise following the procedure of Cayen et al., J. Lipid Res. 20, 162 (1979). The serum radioactivity was measured at six hours after dosing. The results of this study are reported in Table I as percent decrease compared to control.

[2] = target: T1, cholesterol ester hydrolase (CEH) (Bos taurus, UniProt P30122); assay: In vitro inhibition of cholesteryl ester formation by cholesterol esterase (CEH); assay type: biochemical; details: 37° C.; cholesterol and oleic acid; cholesterol esterase from bovine pancreas
T1 construct: purchased Sigma Company, St. Louis, Mo., U.S.A. C-1892; host or cells: bovine pancreas
T1 sequence (P30122 19-597): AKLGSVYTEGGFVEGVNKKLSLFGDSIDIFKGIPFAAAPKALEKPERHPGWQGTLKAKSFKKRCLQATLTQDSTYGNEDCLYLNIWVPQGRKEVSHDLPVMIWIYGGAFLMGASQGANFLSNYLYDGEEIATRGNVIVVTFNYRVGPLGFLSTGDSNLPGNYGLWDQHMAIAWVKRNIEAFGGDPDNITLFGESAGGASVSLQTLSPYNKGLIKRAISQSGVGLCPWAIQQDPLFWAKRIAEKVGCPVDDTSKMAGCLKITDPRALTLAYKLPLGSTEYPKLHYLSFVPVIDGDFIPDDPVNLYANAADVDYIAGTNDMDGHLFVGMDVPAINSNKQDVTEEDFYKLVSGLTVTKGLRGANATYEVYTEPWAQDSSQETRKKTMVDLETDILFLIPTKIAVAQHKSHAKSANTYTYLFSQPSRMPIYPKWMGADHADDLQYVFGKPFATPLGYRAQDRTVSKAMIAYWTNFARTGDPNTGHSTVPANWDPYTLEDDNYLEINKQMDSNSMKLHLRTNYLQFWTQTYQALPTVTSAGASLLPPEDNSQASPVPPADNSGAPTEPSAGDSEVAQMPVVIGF
Protocol: The ability of the compounds of this invention to inhibit the formation of cholesteryl esters and thereby interfere with and prevent assimilation of cholesterol into the lymphatic system and ultimately the blood stream was established by incubating the compounds at 37° C. with a mixture of cholesterol and oleic acid in the presence of buffered cholesterol esterase [(EC 3.1.1.13) Sigma Company, St. Louis, Mo., U.S.A., No. C-1892, from bovine pancreas] and measuring the amount of ester formed, according to the procedure of Field, J. of Lipid Research, 25, 389 (1984).

CNC(=O)OC1CCN(C(=O)Oc2ccc(Oc3ccccc3)cc2)CC1 [4-[[methylamino)carbonyl]oxy]-1-piperidinecarboxylic acid 4-phenoxyphenyl ester]
CEH inhibitor (in words) (CEH): CEH inhibitor

O=C(Oc1ccc2oc3ccccc3c2c1)N1CCSCC1 [Example 2, 4-Thiomornholinecarboxylic acid 2-dibenzofuranyl ester]
Effect on Absorption of ^14 C-chol-6 hr-normal rat, % Decrease ([1]; 10 mg/kg): 16% | IC50 [2]: 0.51 µM

CC1(C)CCN(C(=O)Oc2ccc3oc4ccccc4c3c2)CC1 [Example 3, 4,4-Dimethyl-1-piperidinecarboxylic acid 2-dibenzofuranyl ester]
Effect on Absorption of ^14 C-chol-6 hr-normal rat, % Decrease ([1]; 3 mg/kg): 44% | IC50 [2]: 6.5 µM

O=C(Oc1ccc2oc3ccccc3c2c1)N1CCC2(CCCC2)CC1 [Example 4, 8-Azaspiro[4,5]decane-8-carboxylic acid 2-dibenzofuranyl ester]
Effect on Absorption of ^14 C-chol-6 hr-normal rat, % Decrease ([1]; 3 mg/kg): 55% | IC50 [2]: 15 µM
